The source of these data is patent US8084457B2, “Pharmaceutically active 4,6-disubstituted aminopyrimidine derivatives as modulators of protein kinases” (Lead Discovery Center GmbH, priority 2003, dated 2011).

Format in all cases: cell-based
One data set concerns HBV. Description: HBV replication assay in HepG2-2.2.15 cells. Here is the method: To test anti—HBV-activity of compounds the HBV-producing cell line HepG2-2.2.15 (M. A. Sells, PNAS 1987, 84, 1005-1009) was used. 1.0×10^4 cells were seeded in 96-well microtiter plates in DMEM medium supplemented with 10% FCS. After incubation at 37° C. in 5% CO2 atmosphere for 24 hours the medium was replaced with fresh medium containing the appropriately diluted compound. 3 days later medium was replaced by freshly prepared inhibitor-containing medium and the cells were incubated for further 3 days. Subsequently 200 μl lysis buffer (50 mM Tris-Cl 7.5; 1 mM EDTA 8.0; 0.5% NP40) per well was added. To remove cell debris and […], lysate was centrifuged (15000 rpm, 10 min, 4° C.). Cellular and viral RNA was removed by addition of 2 μl of RNase. 100 μl of the samples were spotted onto an uncharged nylon membrane pre-wetted with PBS (phosphate-buffered saline) using a 96 well-blotting chamber (MINIfold Dot-Blot, Schleicher&Schüll). After further washing with 200 μl PBS per well the membrane was treated twice with 0.5 M NaOH, 1.5 M NaCl (2 min) and 4 times with 0.5 M Tris 7.5, 3 M NaCl (1 min). The nucleic acids were fixed by UV-treatment and used for hybridisabon with a radioactive HBV-fragment prepared from the overgenome-length HBV-plasmid pT-HBV1.3 (L. G. Guidotti et al., Journal of Virology 1995., 69(10), 6158-6169).
The fixed membrane was pre-hybridized in a standard hybridisation buffer (50% formamide, 5×SSPE, 10×Denhards, 1% SDS, 100 μg/ml salmon sperm DNA) for at least 3 hours at 42° C. and hybridised overnight against the labelled HBV-fragment. The preparation of the HBV-fragment with the “Random primers DNA labelling system” (Invitrogen) was done according to the manufacturer's instructions. Hybridized filter were washed at room temperature with 2×SSC, at 62° C. with 2×SSC, 0.5% SDS and at 62° C. with 0.5×SSC, 0.5% SDS. Each washing step was carried out twice. The intensity of the HBV-DNA was quantified using a phosphoimager (Fuji). […] Absorbance was monitored at 570 nm and 600 nm wavelength.

Data set [1] relates to NFκB-dependent transcriptional activity. Kind of data set: NFκB-dependent transcriptional activity (NIH 3T3 75E 11/300D8 cell line). From the text: NFκB-dependent Transcriptional Activity:
The used NIH 3T3 75E 11/300D8 cell line is described elsewhere (J. Eickhoff et al., Journal of Biological Chemistry, 2004, 279(10), 9642-9652).
It is known, that CDK9 regulates the NFκB-dependent transitional activity. With Compound 4, Compound 7 and Compound 30 studies were done, to evaluate their effect on NFκB-dependent transcriptional activity.

A further data set deals with HepG2-2.2.15-cells. On the procedure: The fixed membrane was pre-hybridized in a standard hybridisation buffer (50% formamide, 5×SSPE, 10×Denhards, 1% SDS, 100 μg/ml salmon sperm DNA) for at least 3 hours at 42° C. and hybridised overnight against the labelled HBV-fragment. The preparation of the HBV-fragment with the “Random primers DNA labelling system” (Invitrogen) was done according to the manufacturer's instructions. Hybridized filter were washed at room temperature with 2×SSC, at 62° C. with 2×SSC, 0.5% SDS and at 62° C. with 0.5×SSC, 0.5% SDS. Each washing step was carried out twice. The intensity of the HBV-DNA was quantified using a phosphoimager (Fuji). To test the cell viability 0.5×10^4 HepG2-2.2.15-cells were seeded in 96-well-microtiter plates in DMEM medium supplemented with 10% fetal bovine serum. After incubation at 37° C. for 24 hours the medium was replaced by fresh compound-containing medium. 3 days later medium was replaced again by freshly prepared medium containing the inhibitor and the cells were incubated for further 3 days at 37° C. After the incubation period 1/10 volume of Alamar Blue (Serotec) solution containing a growth dependant indicator was added and the cells were incubated for 3 h at 37° C. Absorbance was monitored at 570 nm and 600 nm wavelength.

On to `c1ccc(COc2ccccc2-c2cc(NCCc3ccncc3)ncn2)cc1` [Compound 7], for which the “HBV replication (in words)” value in the data set with HBV is reported as “inhibited replication”. For the same compound, the “inhibition of NFκB (in words, compared with Compound 30)” value in data set [1] was “less effectively”. The “viability of the cells in the HBV replication assay” value with HepG2-2.2.15-cells is given as “without affecting viability”.
